{"source": "patent US20250059198A1", "about": "“BRM DEGRADING COMPOUNDS AND ASSOCIATED METHODS OF USE” (Arvinas Operations, Inc., priority 2021, published 2025)", "biological_target": "T1, BRM (Homo sapiens, UniProt P51531)", "T1 construct": "Western Blot Screen of BRM Degradation in SW1573 Cells; endogenous in cells; host or cells: SW1573 cells", "T1 sequence (P51531 whole entry)": "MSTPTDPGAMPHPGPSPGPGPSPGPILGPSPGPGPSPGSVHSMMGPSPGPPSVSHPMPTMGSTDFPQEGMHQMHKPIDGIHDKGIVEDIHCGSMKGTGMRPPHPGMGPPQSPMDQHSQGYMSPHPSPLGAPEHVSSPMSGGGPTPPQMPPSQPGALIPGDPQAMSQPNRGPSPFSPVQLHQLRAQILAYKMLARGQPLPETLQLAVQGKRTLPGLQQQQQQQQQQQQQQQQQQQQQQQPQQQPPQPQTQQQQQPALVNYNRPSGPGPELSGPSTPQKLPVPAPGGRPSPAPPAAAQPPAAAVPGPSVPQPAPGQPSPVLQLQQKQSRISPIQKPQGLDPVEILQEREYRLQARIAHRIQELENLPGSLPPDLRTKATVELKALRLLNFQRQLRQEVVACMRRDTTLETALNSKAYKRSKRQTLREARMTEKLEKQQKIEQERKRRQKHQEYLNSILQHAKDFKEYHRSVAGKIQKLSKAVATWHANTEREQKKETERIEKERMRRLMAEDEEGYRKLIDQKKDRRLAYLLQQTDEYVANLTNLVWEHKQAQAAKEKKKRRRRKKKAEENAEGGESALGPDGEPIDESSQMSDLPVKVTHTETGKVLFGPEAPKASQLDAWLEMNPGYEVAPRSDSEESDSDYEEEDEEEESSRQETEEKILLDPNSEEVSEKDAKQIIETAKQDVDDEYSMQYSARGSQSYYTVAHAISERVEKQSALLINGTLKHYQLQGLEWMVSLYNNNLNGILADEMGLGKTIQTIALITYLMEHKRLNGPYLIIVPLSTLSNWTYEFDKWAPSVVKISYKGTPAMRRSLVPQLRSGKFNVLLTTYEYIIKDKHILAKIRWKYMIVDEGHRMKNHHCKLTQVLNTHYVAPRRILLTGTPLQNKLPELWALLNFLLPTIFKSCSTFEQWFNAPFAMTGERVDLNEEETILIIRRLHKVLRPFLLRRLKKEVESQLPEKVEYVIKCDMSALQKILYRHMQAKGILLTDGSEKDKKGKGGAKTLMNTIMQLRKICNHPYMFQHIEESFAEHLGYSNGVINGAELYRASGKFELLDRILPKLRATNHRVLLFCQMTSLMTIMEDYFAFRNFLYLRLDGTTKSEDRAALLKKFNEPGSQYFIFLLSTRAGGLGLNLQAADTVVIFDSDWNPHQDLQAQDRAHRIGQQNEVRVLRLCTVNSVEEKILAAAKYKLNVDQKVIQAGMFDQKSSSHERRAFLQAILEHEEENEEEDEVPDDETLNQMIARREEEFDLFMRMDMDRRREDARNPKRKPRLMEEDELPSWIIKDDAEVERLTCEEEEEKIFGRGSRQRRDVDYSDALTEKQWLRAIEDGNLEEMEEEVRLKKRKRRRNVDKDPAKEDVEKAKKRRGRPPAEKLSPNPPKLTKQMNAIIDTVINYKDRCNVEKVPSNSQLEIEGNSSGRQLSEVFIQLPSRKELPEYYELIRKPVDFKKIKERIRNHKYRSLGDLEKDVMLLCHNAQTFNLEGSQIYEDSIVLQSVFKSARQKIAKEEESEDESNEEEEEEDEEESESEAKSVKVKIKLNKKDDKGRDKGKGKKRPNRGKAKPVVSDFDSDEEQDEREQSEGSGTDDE", "assay": "BRM degradation (Dmax and DC50) in SW1573 cells, Western blot screen / In-Cell Western screen", "format": "cell-based", "conditions": "overnight (18-20 hours) treatment; for Dmax: read-out: Dmax (%)** (% degraded)", "method_in_brief": "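Dmax and DC50 were derived from BRM levels normalised to an alpha-tubulin control, measured by chemiluminescent Western blotting of lysates or by PFA-fixed In-Cell Western on LI-COR Odyssey. SW1573 cells received compound overnight (18–20 h, 0.1% DMSO final).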", "data": [{"smiles": "CC(C)[C@@H](C(=O)N1C[C@H](O)C[C@H]1C(=O)N[C@@H](C)c1ccc(-c2ccnn2C)cc1)c1cc(N2CCC(CN3CCC(O[C@H]4C[C@H](Oc5cc(/C=C(\\F)c6cc(-c7ccccc7O)nnc6N)ccn5)C4)CC3)CC2)no1", "note": "[Compound 51, (2S,4R)-4-hydroxy-N-[(1S)-1-[4-(1-methyl-1H-pyrazol-5-yl)phenyl]ethyl]-1-[(2R)-3-methyl-2-{3-[4-({4-[(1r,3r)-3-[(4-{2-[3-amino-6-(2-hydroxyphenyl)pyridazin-4-yl]-2-fluoroethenyl}pyridin-2-yl)oxy]cyclobutoxy]piperidin-1-yl}methyl)piperidin-1-yl]-1,2-oxazol-5-yl}butanoyl]pyrrolidine-2-carboxamide]", "values": [{"measurement": "DC50", "result": "< 2.5", "unit": "nM"}, {"measurement": "Dmax", "result": "> 75", "unit": "%"}]}, {"smiles": "CC(C)[C@@H](C(=O)N1C[C@H](O)C[C@H]1C(=O)N[C@@H](C)c1ccc(-c2ccnn2C)cc1)c1cc(N2CCC(CN3CCC(Oc4cc(/C=C(\\F)c5cc(-c6ccccc6O)nnc5N)ccn4)CC3)CC2)no1", "note": "[Compound 52, (2S,4R)-1-[(2R)-2-{3-[4-({4-[(4-{2-[3-amino-6-(2-hydroxyphenyl)pyridazin-4-yl]-2-fluoroethenyl}pyridin-2-yl)oxy]piperidin-1-yl}methyl)piperidin-1-yl]-1,2-oxazol-5-yl}-3-methylbutanoyl]-4-hydroxy-N-[(1S)-1-[4-(1-methyl-1H-pyrazol-5-yl)phenyl]ethyl]pyrrolidine-2-carboxamide]", "values": [{"measurement": "DC50", "result": "< 2.5", "unit": "nM"}, {"measurement": "Dmax", "result": "> 75", "unit": "%"}]}, {"smiles": "Cc1ncsc1-c1ccc([C@H](C)NC(=O)[C@@H]2C[C@@H](O)CN2C(=O)[C@@H](c2cc(N3CCC(CN4CCC(O[C@H]5C[C@H](N6CC(F)(F)OC7(CCN(c8cc(-c9ccccc9O)nnc8N)CC7)C6)C5)CC4)CC3)no2)C(C)C)cc1", "note": "[Compound 55, (2S,4R)-4-hydroxy-N-[(1S)-1-[4-(4-methyl-1,3-thiazol-5-yl)phenyl]ethyl]-1-[(2R)-3-methyl-2-{3-[4-({4-[(1r,3r)-3-{9-[3-amino-6-(2-hydroxyphenyl)pyridazin-4-yl]-2,2-difluoro-1-oxa-4,9-diazaspiro[5.5]undecan-4-yl}cyclobutoxy]piperidin-1-yl}methyl)piperidin-1-yl]-1,2-oxazol-5-yl}butanoyl]pyrrolidine-2-carboxamide]", "values": [{"measurement": "DC50", "result": "< 2.5", "unit": "nM"}, {"measurement": "Dmax", "result": "> 75", "unit": "%"}]}, {"smiles": "Cc1ncsc1-c1ccc([C@H](C)NC(=O)[C@@H]2C[C@@H](O)CN2C(=O)[C@@H](c2cc(N3CCC(OC4CCN(C[C@H]5C[C@H](N6CCOC7(CCN(c8cc(-c9ccccc9O)nnc8N)CC7)C6)C5)CC4)CC3)no2)C(C)C)cc1", "note": "[Compound 56, (2S,4R)-4-hydroxy-N-[(1S)-1-[4-(4-methyl-1,3-thiazol-5-yl)phenyl]ethyl]-1-[(2R)-3-methyl-2-(3-{4-[(1-{[(1r,3r)-3-{9-[3-amino-6-(2-hydroxyphenyl)pyridazin-4-yl]-1-oxa-4,9-diazaspiro[5.5]undecan-4-yl}cyclobutyl]methyl}piperidin-4-yl)oxy]piperidin-1-yl}-1,2-oxazol-5-yl)butanoyl]pyrrolidine-2-carboxamide]", "values": [{"measurement": "DC50", "result": "< 2.5", "unit": "nM"}, {"measurement": "Dmax", "result": "> 75", "unit": "%"}]}, {"smiles": "Cc1ncsc1-c1ccc([C@H](C)NC(=O)[C@@H]2C[C@@H](O)CN2C(=O)[C@@H](c2cc(N3CCC(CN4CCC(O[C@H]5C[C@H](N6CCN(CC7(O)CCN(c8cc(-c9ccccc9O)nnc8N)CC7)CC6)C5)CC4)CC3)no2)C(C)C)cc1", "note": "[Compound 57, (2S,4R)-4-hydroxy-N-[(1S)-1-[4-(4-methyl-1,3-thiazol-5-yl)phenyl]ethyl]-1-[(2R)-3-methyl-2-{3-[4-({4-[(1r,3r)-3-[4-({1-[3-amino-6-(2-hydroxyphenyl)pyridazin-4-yl]-4-hydroxypiperidin-4-yl}methyl)piperazin-1-yl]cyclobutoxy]piperidin-1-yl}methyl)piperidin-1-yl]-1,2-oxazol-5-yl}butanoyl]pyrrolidine-2-carboxamide]", "values": [{"measurement": "DC50", "result": "< 2.5", "unit": "nM"}, {"measurement": "Dmax", "result": "> 75", "unit": "%"}]}, {"smiles": "Cc1ncsc1-c1ccc([C@H](C)NC(=O)[C@@H]2C[C@@H](O)CN2C(=O)[C@@H](c2cc(N3CCC(CN4CCC5(CC4)CC(N4CCC(C(=O)N6C7CCC6CN(c6cc(-c8ccccc8O)nnc6N)C7)CC4)C5)CC3)no2)C(C)C)cc1", "note": "[Compound 58, (2S,4R)-1-[(2R)-2-[3-(4-{[2-(4-{3-[3-amino-6-(2-hydroxyphenyl)pyridazin-4-yl]-3,8-diazabicyclo[3.2.1]octane-8-carbonyl}piperidin-1-yl)-7-azaspiro[3.5]nonan-7-yl]methyl}piperidin-1-yl)-1,2-oxazol-5-yl]-3-methylbutanoyl]-4-hydroxy-N-[(1S)-1-[4-(4-methyl-1,3-thiazol-5-yl)phenyl]ethyl]pyrrolidine-2-carboxamide]", "values": [{"measurement": "DC50", "result": "< 2.5", "unit": "nM"}, {"measurement": "Dmax", "result": "> 75", "unit": "%"}]}, {"smiles": "Cc1ncsc1-c1ccc([C@H](C)NC(=O)[C@@H]2C[C@@H](O)CN2C(=O)[C@@H](c2cc(N3CCC(CN4CC[C@@H](Oc5cc(N6C7CCC6CN(c6cc(-c8ccccc8O)nnc6N)C7)ccn5)[C@H](F)C4)CC3)no2)C(C)C)cc1", "note": "[Compound 59, (2S,4R)-1-[(2R)-2-[3-(4-{[(3R,4R)-4-[(4-{3-[3-amino-6-(2-hydroxyphenyl)pyridazin-4-yl]-3,8-diazabicyclo[3.2.1]octan-8-yl}pyridin-2-yl)oxy]-3-fluoropiperidin-1-yl]methyl}piperidin-1-yl)-1,2-oxazol-5-yl]-3-methylbutanoyl]-4-hydroxy-N-[(1S)-1-[4-(4-methyl-1,3-thiazol-5-yl)phenyl]ethyl]pyrrolidine-2-carboxamide]", "values": [{"measurement": "DC50", "result": "10 to 30", "unit": "nM"}, {"measurement": "Dmax", "result": "> 75", "unit": "%"}]}, {"smiles": "Cc1ncsc1-c1ccc([C@H](C)NC(=O)[C@@H]2C[C@@H](O)CN2C(=O)[C@@H](c2cc(N3CCC(CN4CC[C@H](Oc5cc(N6C7CCC6CN(c6cc(-c8ccccc8O)nnc6N)C7)ccn5)[C@@H](F)C4)CC3)no2)C(C)C)cc1", "note": "[Compound 60, (2S,4R)-1-[(2R)-2-[3-(4-{[(3S,4S)-4-[(4-{3-[3-amino-6-(2-hydroxyphenyl)pyridazin-4-yl]-3,8-diazabicyclo[3.2.1]octan-8-yl}pyridin-2-yl)oxy]-3-fluoropiperidin-1-yl]methyl}piperidin-1-yl)-1,2-oxazol-5-yl]-3-methylbutanoyl]-4-hydroxy-N-[(1S)-1-[4-(4-methyl-1,3-thiazol-5-yl)phenyl]ethyl]pyrrolidine-2-carboxamide]", "values": [{"measurement": "DC50", "result": "< 2.5", "unit": "nM"}, {"measurement": "Dmax", "result": "> 75", "unit": "%"}]}, {"smiles": "Cc1ncsc1-c1ccc([C@H](C)NC(=O)[C@@H]2C[C@@H](O)CN2C(=O)[C@@H](c2cc(N3CCC(CN4CCC5(CC4)CC(N4CCC[C@](O)(CN6C7CCC6CN(c6cc(-c8ccccc8O)nnc6N)C7)C4)C5)CC3)no2)C(C)C)cc1", "note": "[Compound 61, (2S,4R)-1-[(2R)-2-{3-[4-({2-[(3R)-3-({3-[3-amino-6-(2-hydroxyphenyl)pyridazin-4-yl]-3,8-diazabicyclo[3.2.1]octan-8-yl}methyl)-3-hydroxypiperidin-1-yl]-7-azaspiro[3.5]nonan-7-yl}methyl)piperidin-1-yl]-1,2-oxazol-5-yl}-3-methylbutanoyl]-4-hydroxy-N-[(1S)-1-[4-(4-methyl-1,3-thiazol-5-yl)phenyl]ethyl]pyrrolidine-2-carboxamide]", "values": [{"measurement": "DC50", "result": "< 2.5", "unit": "nM"}, {"measurement": "Dmax", "result": "> 75", "unit": "%"}]}, {"smiles": "Cc1ncsc1-c1ccc([C@H](C)NC(=O)[C@@H]2C[C@@H](O)CN2C(=O)[C@@H](c2cc(N3CCC(CN4CCC5(CC4)CC(N4CCO[C@@H](C(=O)N6C7CCC6CN(c6cc(-c8ccccc8O)nnc6N)C7)C4)C5)CC3)no2)C(C)C)cc1", "note": "[Compound 62, (2S,4R)-1-[(2R)-2-{3-[4-({2-[(2R)-2-{3-[3-amino-6-(2-hydroxyphenyl)pyridazin-4-yl]-3,8-diazabicyclo[3.2.1]octane-8-carbonyl}morpholin-4-yl]-7-azaspiro[3.5]nonan-7-yl}methyl)piperidin-1-yl]-1,2-oxazol-5-yl}-3-methylbutanoyl]-4-hydroxy-N-[(1S)-1-[4-(4-methyl-1,3-thiazol-5-yl)phenyl]ethyl]pyrrolidine-2-carboxamide]", "values": [{"measurement": "DC50", "result": "< 2.5", "unit": "nM"}, {"measurement": "Dmax", "result": "> 75", "unit": "%"}]}, {"smiles": "Cc1ncsc1-c1ccc([C@H](C)NC(=O)[C@@H]2C[C@@H](O)CN2C(=O)[C@@H](c2cc(N3CCC(CN4CCC5(CC4)CC(n4cc(C#Cc6cc(-c7ccccc7O)nnc6N)cn4)C5)CC3)no2)C(C)C)cc1", "note": "[Compound 63, (2S,4R)-1-[(2R)-2-[3-(4-{[2-(4-{2-[3-amino-6-(2-hydroxyphenyl)pyridazin-4-yl]ethynyl}-1H-pyrazol-1-yl)-7-azaspiro[3.5]nonan-7-yl]methyl}piperidin-1-yl)-1,2-oxazol-5-yl]-3-methylbutanoyl]-4-hydroxy-N-[(1S)-1-[4-(4-methyl-1,3-thiazol-5-yl)phenyl]ethyl]pyrrolidine-2-carboxamide]", "values": [{"measurement": "DC50", "result": "< 2.5", "unit": "nM"}, {"measurement": "Dmax", "result": "> 75", "unit": "%"}]}, {"smiles": "Cc1ncsc1-c1ccc([C@H](C)NC(=O)[C@@H]2C[C@@H](O)CN2C(=O)[C@@H](c2cc(OCCN3CCC(OC(=O)N4CCN(c5cc(-c6ccccc6O)nnc5N)CC4)CC3)no2)C(C)C)cc1", "note": "[Compound 64, 1-[2-({5-[(2R)-1-[(2S,4R)-4-hydroxy-2-{[(1S)-1-[4-(4-methyl-1,3-thiazol-5-yl)phenyl]ethyl]carbamoyl}pyrrolidin-1-yl]-3-methyl-1-oxobutan-2-yl]-1,2-oxazol-3-yl}oxy)ethyl]piperidin-4-yl 4-[3-amino-6-(2-hydroxyphenyl)pyridazin-4-yl]piperazine-1-carboxylate]", "values": [{"measurement": "DC50", "result": "2.5 to 10", "unit": "nM"}, {"measurement": "Dmax", "result": "> 75", "unit": "%"}]}, {"smiles": "Cc1ncsc1-c1ccc([C@H](C)NC(=O)[C@@H]2C[C@@H](O)CN2C(=O)[C@@H](c2cc(N3CCC(CN4CCC(OC(=O)N5CCN(c6cc(-c7ccccc7O)nnc6N)CC5)CC4)CC3)no2)C(C)C)cc1", "note": "[Compound 65, 1-[(1-{5-[(2R)-1-[(2S,4R)-4-hydroxy-2-{[(1S)-1-[4-(4-methyl-1,3-thiazol-5-yl)phenyl]ethyl]carbamoyl}pyrrolidin-1-yl]-3-methyl-1-oxobutan-2-yl]-1,2-oxazol-3-yl}piperidin-4-yl)methyl]piperidin-4-yl 4-[3-amino-6-(2-hydroxyphenyl)pyridazin-4-yl]piperazine-1-carboxylate]", "values": [{"measurement": "DC50", "result": "< 2.5", "unit": "nM"}, {"measurement": "Dmax", "result": "> 75", "unit": "%"}]}]}
